The test system of data set [1] is PToV-P4-Fc (esterase active). Put plainly: Treatment of glycan microarray with esterase active PToV, then probe binding. Type of data set: biochemical, porcine torovirus. To be noted: 20 μg/mL PToV-P4-Fc (esterase active), 2 h, RT; FIG. 3B vs FIG. 3A. The method, then: To assure the quality of the printed slides, one or two slides were used for quality control using antibodies, lectins and serum samples with known glycan binding specificity. For glycan array binding, slides were fitted in a multi-well microarray hybridization cassette (AHC4X8S, ArrayIt, Sunnyvale, CA, USA) to divide into 8 subarrays. The subarrays were blocked with Ovalbumin (1% w/v) in PBS (pH 7.4) for 1 h at RT, with gentle shaking. For the esterase activity studies on the array, after removing the blocking solution, slides were first treated with 20 μg/mL PToV-P4-Fc (esterase active) in blocking buffer for 2 h at RT and then washed with PBS in 0.1% Tween 20 and then PBS (10 min/wash with shaking). Subsequently, diluted protein samples in blocking solution with various concentrations were added to each subarray (both esterase treated and non-treated slides). After incubating the protein samples for 2 h at RT with gentle shaking, the slides were washed with PBS in 0.1% Tween 20 and then PBS (10 min/wash with shaking). […] The data were further analyzed with Excel. […] The binding specificity to glycoconjugates for each protein was plotted based on the RFU (Relative Fluorescence Units), average fluorescence value for 4 replicates, versus glycan IDs. The standard deviations were calculated and the error bars were found for each glycan binding. […]

The test system of data set [2] is porcine torovirus hemagglutinin-esterase (PToV-P4-Fc, esterase inactivated). Put plainly: Sialoglycan microarray binding of PToV-P4-Fc (esterase inactive). To be noted: without esterase treatment (FIG. 3A).
The subject of data set [3] is human Siglec-9-Fc (hSiglec-9). Put plainly: Sialoglycan microarray binding of human Siglec-9-Fc. To be noted: without esterase treatment (FIG. 3A). On the procedure:
The synthesized glycan Neu5Ac9NAcα3Galβ4GlcβProNH2 was used in a glycan library for glycan microarray studies. Glycan microarrays were fabricated using epoxide-derivatized slides (Corning by Thermo Fisher Scientific) and Arrayit SpotBot® Extreme Microarray Spotter. The arrays were printed with Stealth SMP3 microarray spotting pins from ArrayIt (Sunnyvale, CA, USA) generating 100 μm diameter spots. 4 pins were used; with each pin printing 4 replicate spots/well. The glycoconjugates were prepared at 100 μM concentration in an optimized printing buffer (300 mM phosphate buffer, pH 8.4). They were then distributed into a 384-well source plate in 20 μL per well. To monitor printing quality, 4 replicate-wells of human IgG (Jackson ImmunoResearch) was used at 100 μg/ml (in PBS) for each printing-pin. One complete array was printed on each slide (within approx 12 hour/˜28 slides). The humidity level in the arraying chamber was maintained at about 60-65% during printing. Printed slides were left on spotter deck overnight, allowing humidity to drop to ambient levels. Printed glycan microarray slides were blocked by 50° C. pre-warmed blocking solution (0.1 M Tris-HCl, 0.05 M ethanolamine, pH 9.0, 1 h). They were then washed twice with 50° C. pre-warmed water and dried. Slides were packed, vacuum-sealed and stored at RT until used.
To assure the quality of the printed slides, one or two slides were used for quality control using antibodies, lectins and serum samples with known glycan binding specificity. For glycan array binding, slides were fitted in a multi-well microarray hybridization cassette (AHC4X8S, ArrayIt, Sunnyvale, CA, USA) to divide into 8 subarrays. The subarrays were blocked with Ovalbumin (1% w/v) in PBS (pH 7.4) for 1 h at RT, with gentle shaking. […] The data were further analyzed with Excel. […] The binding specificity to glycoconjugates for each protein was plotted based on the RFU (Relative Fluorescence Units), average fluorescence value for 4 replicates, versus glycan IDs. The standard deviations were calculated and the error bars were found for each glycan binding. […]

In data set [4] the test system is BJA-B K20 cells. Kind of data set: Feeding of free sialic acids to BJA-B K20 cells, DMB derivatization and HPLC of membrane sialic acids. Conditions: 1 mM for 3 days; sialic acids released with Vibrio cholerae neuraminidase.
The next data set concerns human CD22-Fc/Siglec-2. Kind of data set: Feeding of free sialic acids to BJA-B K20 cells, probing with human CD22-Fc, flow cytometry. Type of data set: cell-based. Conditions: 3 mM, 3 days of feeding. The method, then:
Cell Culture and Sugar Supplementation.
Flow Cytometry. Cells were washed with PBS and incubated with 10 μg/mL of PToV probes in PBS with 1% BSA and 10 mM EDTA for 30 minutes on ice. Subsequently, cells were washed with PBS and incubated with PE goat anti-human IgG antibody for 30 minutes on ice. After an additional washing step, the cells were analyzed by FACSCalibur (BD).
After 3 days of feeding, BJA-B K20 cells were probed with human CD22-Fc/Siglec-2 to detect ligands (FIG. 7). […] However, when the cells were grown in the presence of Neu5Ac9NAc, the expression of the CD22 ligand was minimal (FIG. 7C). […] This supports previous observations that human CD22-Fc recognizes α2-6-linked sialosides with Neu5Ac or N-glycolylneuraminic acid (Neu5Gc) as the preferred naturally existing sialic acid form and 9-O-acetyl modification on sialic acid blocks the binding.
On the technique in general: Flow cytometry measures light scatter and fluorescence of single cells or particles in a stream.

The nature of data set [5]: De-O-acetylation of 9-OAc glycan during glycan microarray process (DMB derivatization, HPLC). Format: physicochemical.
A further data set addresses T1, SpNanA (Streptococcus pneumoniae, UniProt P62575).
T1 construct: made in house
Kind of data set: Sialidase substrate specificity of Leg glycosides (HPLC/capillary electrophoresis), SpNanA. Type of data set: biochemical. To be noted: 37° C., 16 hs, pH 6.0.

The target of another data set is T2, V. cholerae sialidase (Vibrio cholerae serotype O1, UniProt P0C6E9).
T2 construct: purchased Roche
Put plainly: Sialidase substrate specificity of Leg glycosides (HPLC/capillary electrophoresis), V. cholerae sialidase. Format: biochemical. To be noted: pH 5.5.

The target of data set [6] is T3, human cytosolic sialidase hNEU2 (Homo sapiens, UniProt Q9Y3R4).
T3 construct: made in house
Kind of data set: Sialidase substrate specificity of Leg glycosides (HPLC/capillary electrophoresis), hNEU2. Type of data set: biochemical. To be noted: 37° C., 16 hs, pH 5.0.

For the next data set, the target named is T4, SpNanB (Streptococcus pneumoniae serotype 4, UniProt Q54727, E68D/K536E/K577E/N393D/S59P).
T4 construct: made in house
Put plainly: Sialidase substrate specificity of Leg glycosides (HPLC/capillary electrophoresis), SpNanB. Format: biochemical. To be noted: 37° C., 16 hs, pH 6.0.

Data set [7] deals with T5, wild-type PmST1 (α2-3-sialidase activity) (Pasteurella multocida, UniProt Q15KI8).
T5 construct: made in house
Kind of data set: Sialidase substrate specificity of Leg glycosides (HPLC/capillary electrophoresis), PmST1. To be noted: 37° C., 16 hs, CMP (0.4 mM), pH 5.5. Format: biochemical.

A further data set has as its system A. ureafaciens sialidase. Kind of data set: Sialidase substrate specificity of Leg glycosides (HPLC/capillary electrophoresis), A. ureafaciens sialidase. Type of data set: biochemical, Arthrobacter ureafaciens. Conditions: pH 5.5.
The target in data set [8] is C. perfringens sialidase (CpNanH) (Clostridium perfringens, UniProt P10481). Format: biochemical. Conditions: 37° C., 16 hs, pH 5.0.
The target in a further data set is T6, BiNanH2 (Bifidobacterium longum, UniProt A0ACD7UU12).
T6 sequence (A0ACD7UU12 1-394): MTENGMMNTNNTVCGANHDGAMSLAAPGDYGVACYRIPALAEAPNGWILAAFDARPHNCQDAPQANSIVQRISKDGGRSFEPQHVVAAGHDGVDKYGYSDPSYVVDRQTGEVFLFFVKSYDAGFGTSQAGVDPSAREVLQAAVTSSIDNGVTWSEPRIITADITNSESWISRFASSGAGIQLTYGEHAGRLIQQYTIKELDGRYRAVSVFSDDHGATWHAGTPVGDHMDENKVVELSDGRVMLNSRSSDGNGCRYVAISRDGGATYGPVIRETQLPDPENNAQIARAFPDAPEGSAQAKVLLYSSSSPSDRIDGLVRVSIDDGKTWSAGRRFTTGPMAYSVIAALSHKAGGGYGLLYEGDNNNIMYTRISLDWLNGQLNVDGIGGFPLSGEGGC
Put plainly: Sialidase substrate specificity of Leg glycosides (HPLC/capillary electrophoresis), BiNanH2. Format: biochemical, Bifidobacterium infantis. To be noted: 37° C., 16 hs, pH 5.0.

A further data set addresses SpNanC (Streptococcus pneumoniae, UniProt A0A0H2UQE4). Put plainly: Sialidase substrate specificity of Leg glycosides (HPLC/capillary electrophoresis), SpNanC. Format: biochemical. To be noted: 37° C., 16 hs, pH 6.5.
Data set [9] has as its system BJA-B K20 cells. Put plainly: Feeding of free sialic acids to BJA-B K20 cells, PToV probes, flow cytometry. Type of data set: cell-based, human.

This is an account of results in patent US12162901B2, “N-acetylated sialic acids and related sialosides” (priority 2016, dated 2024).

Molecules are shown by their SMILES.

T3 sequence (Q9Y3R4 whole entry): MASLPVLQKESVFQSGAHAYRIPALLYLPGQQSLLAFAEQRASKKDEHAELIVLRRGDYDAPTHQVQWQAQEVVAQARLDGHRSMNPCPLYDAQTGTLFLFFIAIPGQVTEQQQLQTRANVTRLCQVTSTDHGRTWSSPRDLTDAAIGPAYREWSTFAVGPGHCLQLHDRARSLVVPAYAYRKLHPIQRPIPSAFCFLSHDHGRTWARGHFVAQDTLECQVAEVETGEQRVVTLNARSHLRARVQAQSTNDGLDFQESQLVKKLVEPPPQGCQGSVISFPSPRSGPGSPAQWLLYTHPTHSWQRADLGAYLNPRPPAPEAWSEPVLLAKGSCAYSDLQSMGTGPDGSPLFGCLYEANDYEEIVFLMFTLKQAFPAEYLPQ

Turning to `CC(=O)NC[C@@H](O)[C@@H](O)[C@@H]1O[C@@](O[C@H]2[C@@H](O)[C@@H](CO)O[C@@H](O[C@H]3[C@H](O)[C@@H](O)[C@H](OCCCN)O[C@@H]3CO)[C@@H]2O)(C(=O)O)C[C@H](O)[C@H]1NC(C)=O` [Neu5Ac9NAcα3Galβ4GlcβProNH2, 3-Aminopropyl O-(5,9-Diacetamido-3,5,9-trideoxy-D-glycero-α-D-galacto-2-nonulopyranosylonic acid)-(2→3)-O-β-D-galactopyranosyl-(1→4)-β-D-glucopyranoside], in [1], the “stability of the 9-modification towards esterase active PToV” value was “stability of 9NAc”. Besides, the “binding of PToV on glycan microarray” value in [2] is “prefer binding”. Also, in [3], the “binding of hSiglec-9 on glycan microarray” value was “observable binding”.
As to `CC(=O)N[C@H]1[C@H]([C@H](O)[C@H](O)CO)OC(O)(C(=O)O)C[C@@H]1O` (stereo partly drawn) [Neu5Ac, N-acetylneuraminic acid], the “incorporation on the cell membrane (DMB-HPLC)” value in the data set on BJA-B K20 cells [4] was “showed incorporation”. Further, the “expression of CD22 ligand on fed cells” value in the data set on human CD22-Fc/Siglec-2 is listed as “high expression of CD22 ligand”.
On to `CC(=O)N[C@H]1[C@H]([C@H](O)[C@H](O)CO)O[C@@](O[C@H]2[C@@H](O)[C@@H](CO)O[C@@H](O[C@H]3[C@H](O)[C@@H](O)[C@H](OCCCN)O[C@@H]3CO)[C@@H]2O)(C(=O)O)C[C@@H]1O` [Neu5Acα3Galβ4GlcβProNH2], for which, in data set [3], the “binding of hSiglec-9 on glycan microarray” value was “prefers binding”.
Take `CC(=O)N[C@H]1[C@H]([C@H](O)[C@H](O)COC(C)=O)O[C@@](O[C@H]2[C@@H](O)[C@@H](CO)O[C@@H](O[C@H]3[C@H](O)[C@@H](O)[C@H](OCCCN)O[C@@H]3CO)[C@@H]2O)(C(=O)O)C[C@@H]1O` [Neu5,9Ac2α3Galβ4GlcβProNH2]: the “loss of the OAc group” value in data set [5] (AUS treatment followed by DMB derivatization at low temperature (FIG. 2B)) is 1.5%. For the same molecule, in data set [5] (release of sialic acids with acetic acid, DMB derivatization, HPLC (FIG. 2A)), the “OAc group lost from the 9-position of Neu5Ac or migrated to 7- and 8-positions” value is roughly 45%. Further, in data set [5] (standard blocking condition (ethanolamine in Tris-HCl buffer, pH 9.0)), the “sialic acid de-O-acetylated” value is recorded as “about 5%”. In data set [5] (stock solution after three months at −20° C. and a few freeze-thaw cycles), the OAc group released is 4%. In addition, the “loss of OAc” value in [5] (storage in phosphate buffer (pH 8.4) at room temperature) was “about 3%”. For the same molecule, the “stability of the 9-modification towards esterase active PToV” value in data set [1] is on record as “esterase lability of 9OAc”. The “binding of PToV on glycan microarray” value in [2] is listed as “slightly stronger binding to the 9OAc derivative”. Also, the “binding of hSiglec-9 on glycan microarray” value in data set [3] was “observable binding”.
In the case of `C[C@@H](O)[C@@H](N=[N+]=[N-])C1O[C@@](OC2C(O)[C@H](Oc3ccc([N+](=O)[O-])cc3)OC(CO)[C@@H]2O)(C(=O)O)CC(O)[C@H]1N=[N+]=[N-]` (stereo partly drawn) [3-13, Leg5,7diN3α2-3GalβpNP], the “activity of SpNanA for the compound” value on SpNanA was “did not show activity”. Besides, at V. cholerae sialidase, the “activity of V. cholerae sialidase for the compound” value is “did not show activity”. Further, in [6], the “activity of hNEU2 for the compound” value is reported as “did not show activity”. Also, on SpNanB, the “activity of SpNanB for the compound” value is listed as “did not show activity”. Also, the “substrate for the α2-3-sialidase activity of wild-type PmST1” value in data set [7] is “not”. For the same molecule, the “activity of A. ureafaciens sialidase for the compound” value in the data set with A. ureafaciens sialidase is reported as “did not show activity”. The “activity of C. perfringens sialidase (CpNanH) for the compound” value in data set [8] is “did not show activity”. Further, the “activity of BiNanH2 for the compound” value on BiNanH2 is given as “did not show activity”. Besides, at SpNanC, the “activity of SpNanC for the compound” value is “did not show activity”.
Turning to `CC(=O)N[C@H]1[C@H]([C@H](O)[C@H](O)COC(C)=O)OC(O)(C(=O)O)C[C@@H]1O` (stereo partly drawn) [Neu5,9Ac2, 9-O-acetyl-N-acetylneuraminic acid], the “turnover on cell surface” value with BJA-B K20 cells [9] (1 mM for two days, then sugar removed, monitored for 4 days with PToV (esterase inactive) probe) is recorded as “faster than that of Neu5Ac9NAc”. Also, the “cell surface incorporation detected with PToV probe” value in the data set with BJA-B K20 cells [9] (1 mM free sialic acid, three days of feeding) is listed as “detected on the cell surface”. Besides, the “incorporation on the cell membrane (DMB-HPLC)” value with BJA-B K20 cells [4] was “showed incorporation”. The “expression of CD22 ligand on fed cells” value in the data set with human CD22-Fc/Siglec-2 was “between the two”.
